Experimental data: patent publication US20150299125A1, “PRODRUG BIPYRIDYLAMINOPYRIDINES AS SYK INHIBITORS” (MERCK SHARP & DOHME CORP., priority 2012, published 2015)

Target: T1, recombinant human GST-Syk (Homo sapiens, UniProt P43405)
T1 construct: purchased Carna Biosciences 08-176
Test: Homogeneous Time-Resolved Fluorescence (HTRF) assay for the recombinant human Syk enzyme
Type: biochemical
Conditions: recombinant human GST-Syk 5 pM, ATP 25 μM, read-out: IC50
Method: Syk inhibition of the compounds of Formula (I) may be determined using the following assay protocol: Homogeneous Time-Resolved Fluorescence (HTRF) Assay for the Recombinant Human Syk Enzyme: A recombinant GST-hSyk fusion protein was used to measure potency of compounds to inhibit human Syk activity. […] Final volume of the reaction was 10 μL. Phosphorylation of the peptide was allowed to proceed for 45' at room temperature. To quench the reaction and detect the phosphorylated product, 2 nM of a Europium-anti-phosphotyrosine antibody (Perkin Elmer #AD0161) and 70 nM SA-APC (Perkin-Elmer #CR130-100) were added together in 15 mM Tris pH 7.5, 40 mM EDTA, 0.01% tween 20. Final volume of the quenching solution was 10 μL. The resulting HTRF signal was measured after 30 minutes on a EnVision (Perkin-Elmer) reader using a time-resolved fluorescence protocol.

Going from CCOCC(COCC)OC(=O)OCOC(=O)[C@H]1CC[C@H]([C@@](C)(O)c2ccc(-c3cc(C)cc(Nc4cc(C(F)F)ccn4)n3)cn2)CC1 [Example 2-8, ({[2-ethoxy-1-(ethoxymethyl)ethoxy]carbonyl}oxy) methyl trans-4-[(1R)-1-(6-{[4-(difluoromethyl)pyridin-2-yl]amino}-4-methyl-2,3′-bipyridin-6′-yl)-1-hydroxyethyl]cyclo hexanecarboxylate] to CSCCOC(=O)OCOC(=O)[C@H]1CC[C@H]([C@@](C)(O)c2ccc(-c3cc(C)cc(Nc4cc(C(F)F)ccn4)n3)cn2)CC1 [Example 2-10, ({[2-(methylsulfanyl)ethoxy]carbonyl}oxy) methyl trans-4-[(1R)-1-(6-{[4-(difluoromethyl)pyridin-2-yl]amino}-4-methyl-2,3′-bipyridin-6′-yl)-1-hydroxyethyl]cyclo hexanecarboxylate], the IC50 falls from 22.8 nM to < 0.5 nM.

Cc1cc(Nc2cc(C(F)F)ccn2)nc(-c2ccc([C@](C)(O)[C@H]3CC[C@H](C(=O)Oc4ccccc4)CC3)nc2)c1 [Example 1-6, Phenyl trans-4-[(1R)-1-(6-{[4-(difluoromethyl)pyridin-2-yl]amino}-4-methyl-2,3′-bipyridin-6′-yl)-1-hydroxyethyl]cyclohexanecarboxylate] and COc1ccc(OC(=O)[C@H]2CC[C@H]([C@@](C)(O)c3ccc(-c4cc(C)cc(Nc5cc(C(F)F)ccn5)n4)cn3)CC2)cc1 [Example 1-28, 4-methoxyphenyl trans-4-[(1R)-1-(6-{[4-(difluoromethyl)pyridin-2-yl]amino}-4-methyl-2,3′-bipyridin-6′-yl)-1-hydroxyethyl] cyclohexanecarboxylate] are within 1.5-fold of each other in IC50: 9.7 nM for the first, 7.2 nM for the second.

Going from Cc1cc(Nc2cc(C(F)F)ccn2)nc(-c2ccc([C@](C)(O)[C@H]3CC[C@H](C(=O)OC[N+]4(C)CCC(F)(F)CC4)CC3)nc2)c1 [Example 5-13, 1-{[({trans-4-[(1R)-1-(6-{[4-(difluoromethyl)pyridin-2-yl]amino}-4-methyl-2,3′-bipyridin-6′-yl)-1-hydroxyethyl]cyclohexyl}carbonyl)oxy]methyl}-4,4-difluoro-1-methylpiperidinium] to Cc1cc(Nc2cc(C(F)F)ccn2)nc(-c2ccc([C@](C)(O)[C@H]3CC[C@H](C(=O)OC[N+]4(CC#N)CCCCC4)CC3)nc2)c1 [Example 5-16, 1-(cyanomethyl)-1-{[({trans-4-[(1R)-1-(6-{[4-(difluoromethyl)pyridin-2-yl]amino}-4-methyl-2,3′-bipyridin-6′-yl)-1-hydroxyethyl]cyclohexyl}carbonyl)oxy]methyl}piperidinium], the IC50 falls from 1.3 nM to 0.6 nM (2.2-fold). The second is the more potent here.

Going from Cc1cc(Nc2cc(C(F)F)ccn2)nc(-c2ccc([C@](C)(O)[C@H]3CC[C@H](C(=O)OCOC(=O)OCc4nccn4C)CC3)nc2)c1 [Example 2-13, ({[(1-methyl-1H-imidazol-2-yl)methoxy]carbonyl}oxy)methyl trans-4-[(1R)-1-(6-{[4-(difluoromethyl)pyridin-2-yl]amino}-4-methyl-2,3′-bipyridin-6′-yl)-1-hydroxyethyl]cyclo hexanecarboxylate] to Cc1cc(Nc2cc(C(F)F)ccn2)nc(-c2ccc([C@](C)(O)[C@H]3CC[C@H](C(=O)OCOC(=O)OCC[S+](C)[O-])CC3)nc2)c1 (single isomer, unassigned) [Example 7-5], the IC50 falls from 34.6 nM to 0.6 nM (58-fold).

Cc1cc(Nc2cc(C(F)F)ccn2)nc(-c2ccc([C@](C)(O)[C@H]3CC[C@H](C(=O)OC[N+](C)(C)C(C)c4ccccc4)CC3)nc2)c1 (stereo partly drawn) [Example 5-15, N-{[({trans-4-[(1R)-1-(6-{[4-(difluoromethyl)pyridin-2-yl]amino}-4-methyl-2,3′-bipyridin-6′-yl)-1-hydroxyethyl]cyclohexyl}carbonyl)oxy]methyl}-N,N-dimethyl-1-phenylethanaminium] and Cc1cc(Nc2cc(C(F)F)ccn2)nc(-c2ccc([C@](C)(O)[C@H]3CC[C@H](C(=O)OC[N+](C)(C)CCc4ccccn4)CC3)nc2)c1 [Example 5-21, N-{[({trans-4-[(1R)-1-(6-{[4-(difluoromethyl)pyridin-2-yl]amino}-4-methyl-2,3′-bipyridin-6′-yl)-1-hydroxyethyl]cyclohexyl}carbonyl)oxy]methyl}-N,N-dimethyl-2-pyridin-2-ylethanaminium] cannot be ordered by IC50: < 0.5 nM for the first, < 0.5 nM for the second.

Cc1cc(Nc2cc(C(F)F)ccn2)nc(-c2ccc([C@](C)(O)[C@H]3CC[C@H](C(=O)OC(C)OC(=O)c4cnn(C)c4)CC3)nc2)c1 (single isomer, unassigned) [Example 3-2a] and COCCN(C)C(=O)OC(C)OC(=O)[C@H]1CC[C@H]([C@@](C)(O)c2ccc(-c3cc(C)cc(Nc4cc(C(F)F)ccn4)n3)cn2)CC1 (single isomer, unassigned) [Example 4-1b] are within 1.5-fold of each other in IC50: 19.1 nM for the first, 12.9 nM for the second.

Going from CCOC(=O)C[N+](C)(C)COC(=O)[C@H]1CC[C@H]([C@@](C)(O)c2ccc(-c3cc(C)cc(Nc4cc(C(F)F)ccn4)n3)cn2)CC1 [Example 5-19, N-{[({trans-4-[(1R)-1-(6-{[4-(difluoromethyl)pyridin-2-yl]amino}-4-methyl-2,3′-bipyridin-6′-yl)-1-hydroxyethyl]cyclohexyl}carbonyl)oxy]methyl}-2-ethoxy-N,N-dimethyl-2-oxoethanaminium] to Cc1cc(Nc2cc(C(F)F)ccn2)nc(-c2ccc([C@](C)(O)[C@H]3CC[C@H](C(=O)OCC(C)(C)O)CC3)nc2)c1 [Example 1-1, 2-Hydroxy-2-methylpropyl trans-4-[(1R)-1-(6-{[4-(difluoromethyl)pyridin-2-yl]amino}-4-methyl-2,3′-bipyridin-6′-yl)-1-hydroxyethyl]cyclohexanecarboxylate], the IC50 rises from 0.8 nM to 8.1 nM (10-fold).

First: Cc1cc(Nc2cc(C(F)F)ccn2)nc(-c2ccc([C@](C)(O)[C@H]3CC[C@H](C(=O)OCOC(=O)OCCC(=O)N(C)C)CC3)nc2)c1 [Example 2-12, ({[3-(dimethylamino)-3-oxopropoxy]carbonyl}oxy)methyl trans-4-[(1R)-1-(6-{[4-(difluoromethyl)pyridin-2-yl]amino}-4-methyl-2,3′-bipyridin-6′-yl)-1-hydroxyethyl]cyclo hexanecarboxylate]
Second: Cc1cc(Nc2cc(C(F)F)ccn2)nc(-c2ccc([C@](C)(O)[C@H]3CC[C@H](C(=O)OCOC(=O)OCCS(C)(=O)=O)CC3)nc2)c1 [Example 7-7, ({[2-(methylsulfonyl)ethoxy]carbonyl}oxy)methyl trans-4-[(1R)-1-(6-{[4-(difluoromethyl)pyridin-2-yl]amino}-4-methyl-2,3′-bipyridin-6′-yl)-1-hydroxyethyl]cyclohexane-carboxylate]
The IC50 of the first is 3-fold lower: 1.5 nM for the first, 4.5 nM for the second. The first is the more potent here.

Going from CCCCCCCC[N+](CCCCCCCC)(CCCCCCCC)COC(=O)[C@H]1CC[C@H]([C@@](C)(O)c2ccc(-c3cc(C)cc(Nc4cc(C(F)F)ccn4)n3)cn2)CC1 [Example 5-8, N-{[({trans-4-[(1R)-1-(6-{[4-(difluoromethyl)pyridin-2-yl]amino}-4-methyl-2,3′-bipyridin-6′-yl)-1-hydroxyethyl]cyclohexyl}carbonyl)oxy]methyl}-N,N-dioctyloctan-1-aminium] to CCCC[N+](C)(CCCC)COC(=O)[C@H]1CC[C@H]([C@@](C)(O)c2ccc(-c3cc(C)cc(Nc4cc(C(F)F)ccn4)n3)cn2)CC1 [Example 5-18, N-butyl-N-{[({trans-4-[(1R)-1-(6-{[4-(difluoromethyl)pyridin-2-yl]amino}-4-methyl-2,3′-bipyridin-6′-yl)-1-hydroxyethyl]cyclohexyl}carbonyl)oxy]methyl}-N-methylbutan-1-aminium], the IC50 falls from 2.5 nM to 1.4 nM (1.8-fold).

COCCOCCNC(=O)OCOC(=O)[C@H]1CC[C@H]([C@@](C)(O)c2ccc(-c3cc(C)cc(Nc4cc(C(F)F)ccn4)n3)cn2)CC1 [Example 4-3, 3-oxo-2,7,10-trioxa-4-azaundec-1-yl trans-4-[(1R)-1-(6-{[4-(difluoromethyl)pyridin-2-yl]amino}-4-methyl-2,3′-bipyridin-6′-yl)-1-hydroxyethyl]cyclohexanecarboxylate] and Cc1cc(Nc2cc(C(F)F)ccn2)nc(-c2ccc([C@](C)(O)[C@H]3CC[C@H](C(=O)OCOC(=O)C(C)(C)O)CC3)nc2)c1 [Example 3-3, [(2-Hydroxy-2-methylpropanoyl)oxy]methyl trans-4-[(1R)-1-(6-{[4-(difluoromethyl)pyridin-2-yl]amino}-4-methyl-2,3′-bipyridin-6′-yl)-1-hydroxyethyl]cyclohexanecarboxylate] are within 1.5-fold of each other in IC50: 2.4 nM for the first, 2.3 nM for the second.

First: Cc1cc(Nc2cc(C(F)F)ccn2)nc(-c2ccc([C@](C)(O)[C@H]3CC[C@H](C(=O)OCC[S+](C)[O-])CC3)nc2)c1 (stereo partly drawn) [Example 7-3, 2-(methylsulfinyl)ethyl trans-4-[(1R)-1-(6-{[4-(difluoromethyl)pyridin-2-yl]amino}-4-methyl-2,3′-bipyridin-6′-yl)-1-hydroxyethyl]cyclohexane-carboxylate]
Second: CC[N+](CC)(COC(=O)[C@H]1CC[C@H]([C@@](C)(O)c2ccc(-c3cc(C)cc(Nc4cc(C(F)F)ccn4)n3)cn2)CC1)C1CCCCC1 [Example 5-22, N-{[({trans-4-[(1R)-1-(6-{[4-(difluoromethyl)pyridin-2-yl]amino}-4-methyl-2,3′-bipyridin-6′-yl)-1-hydroxyethyl]cyclohexyl}carbonyl)oxy]methyl}-N,N-diethylcyclohexanaminium]
The IC50 of the first is 3.7-fold higher: 3.3 nM for the first, 0.9 nM for the second.

Work on Cc1cc(Nc2cc(C(F)F)ccn2)nc(-c2ccc([C@](C)(O)[C@H]3CC[C@H](C(=O)OC[N+](C)(C4CCCCC4)C4CCCCC4)CC3)nc2)c1 [Example 5-24, N-cyclohexyl-N-{[({trans-4-[(1R)-1-(6-{[4-(difluoromethyl)pyridin-2-yl]amino}-4-methyl-2,3′-bipyridin-6′-yl)-1-hydroxyethyl]cyclohexyl}carbonyl)oxy]methyl}-N-methylcyclohexanaminium] yielded an IC50 of 1 nM.
